According to patent US20070015702A1, “Method of treatment and/or prevention of neuropathic pain” (Asahi Kasei Pharma Corporation, priority 2005, published 2007):
Where two headings read alike, the source gives them in different places.

What was measured:
[1] = test system: chronic constriction injury model (CCI model); test: Continuous administration of elcatonin in CCI model, hyperalgesia, withdrawal latency (BASILE Plantar Test); format: in vivo, rat
Description: An apparatus measures a time (withdrawal latency) until escaping after giving nociceptive heat stimulus to a posterior limb in a rat under unrestrained condition. Right hindlimb was measured as a measurement leg. Initially, a rat was placed in an acryl box on a glass plate, and domesticated for about 5 minutes. Amoving type I.R (infrared) generator (I.R. vessel) was placed under the glass plate, and “sight” cross (I.R. irradiation position) inscribed on an upper panel of the I.R. vessel was adjusted to inside of six pads on the right hind paw. In this procedure, contact of the glass plate and hind paw was confirmed. Subsequently, a start key was pushed and heat stimulation was imparted, and withdrawal latency for escaping behavior of a rat of withdrawing limb was measured. When escaping behavior is caused, a switch is automatically turned off, and reaction time is counted. […] Measurement was carried out under clean condition so that there was no feces and no urine on the glass plate.

[2] = rat, in vivo, sc
Description: Measurement of serum calcium value was conducted using calcium C-test wako (Wako).

[3] = Shinyaku to Rinsho, 1990, vol. 39, no. 2; cited from earlier work
[4] = test system: chronic constriction injury model (CCI model); test: Intermittent subcutaneous administration of elcatonin in CCI model, nociceptive threshold; format: in vivo, rat
Description: On the 12th day or later after the constriction operation, ECT or vehicle was administered subcutaneously at 0.05 ml/B.W.100 g.

[5] = test system: chronic constriction injury model (CCI model)
Description: Under anesthesia with ether, a rat was placed in prone position, and while touching the right femur, the skin was dissected right above it. Biceps femoris was peeled at the center of the femur, and exposed by about 5 mm trying not to injure the sciatic nerve. Using 4-0 blade silk, the sciatic nerve was liegted loosely 4 times in turn from the peripheral side. Thereafter, the fascia and the skin were sutured.
Using withdrawal threshold and body weight on the 8th day after the constriction operation as indices, the rats were divided into a CCI-vehicle group (12 rats), and CCI-ECT 0.75 mU/kg/week, CCI-ECT 7.5 mU/kg/week and CCI-ECT 75 mU/kg/week groups (each 12 rats), by a randomization method (SAS system, version 8.2). […] Body weight used for administration was estimated body weight after initiation of administration and calculated by multiplying body weight at start of administration by body weight increase coefficient (1.1) obtained in the preliminary experiment. […]
First, the position of a pressure needle was controlled to confirm that an arm was horizontal to the thickness of a rat leg. […] When the rat withdrew the limb, the foot pedal was released, and a numerical value 0 to 25) of the moving matter on a scale was read. The read numerical value was multiplied by 20, to convert into pressed weight (withdrawal threshold). […]

Substance	maximum effective dose of neuropathic pain treatment by continuous administration ([1]; Example 2, rat)	maximum effective dose of neuropathic pain treatment by continuous administration, in terms of second ([1]; Example 2, rat)	dose per unit time (second) at which serum calcium value changed (serum calcium alteration threshold) [2]	ratio of calcitonin dose altering serum calcium value, rat versus human [3]	extent of analgesic action across dose range ([1]; 0.00075-75 U/kg/week continuous)	analgesic action on continued administration ([1]; administration continued for 2 weeks)	analgesic action (withdrawal latency) ([1]; next day after initiation of continuous administration (12th day after operation), 0.00075, 0.0075, 0.075, 7.5, 75 U/kg/week, vs vehicle group)	analgesic action (nociceptive threshold) ([4]; 15 U/kg s.c. 3 times a week)	day after initiation of administration from which the threshold initiated to recover ([4]; 15 U/kg s.c. 5 times a week)	effect on nociceptive threshold until 3-rd day after initiation of administration ([4]; 15 U/kg s.c. intermittent, 3 or 5 times a week)	manifestation of analgesic effect ([4]; intermittent administration, dose further increased)	time after initiation of administration at which significant analgesic action was recognized ([5]; continuous s.c. administration, CCI rats)	analgesic action (nociceptive threshold) ([5]; continuous s.c. mini osmotic pump, 0.75, 7.5, 75 mU/kg/week, from 11th day after constriction operation, vs vehicle group, Williams test)
calcitonin	75 U/kg/week	0.124 mU/kg/second	15 mU/kg/second	25 fold									
1-butylic acid-7-(L-2-aminobutylic acid)-26-L-aspartic acid-27-L-valine-29-L-alaninecalcitonin [elcatonin]					approximately constant	continuance of an analgesic action	significant analgesic action was confirmed in all elcatonin administration groups	a significant action was not observed	4 days	an effect was not observed	delay of manifestation of an analgesic effect was not improved	16 h	significant analgesic action
